The numbers were not newly measured in patent US20050150424A1, “Ink composition and inkjet recording method” (FUJI PHOTO FILM CO., LTD., priority 2003, published 2005), which cites them from elsewhere.

SMILES strings stand for the structures. Where two headings read alike, the source gives them in different places.

For this data set the following is noted: in water at 25° C.

Regarding `C=C(C)C(=O)OCCOC(=O)c1ccccc1C(=O)O` [2-methacryloyloxyethyl phthalate], the pKa was 4.0. Turning to `C=C(C)C(=O)OCCOP(=O)(O)O` [ethylene glycol methacrylate phosphate], the pKa is listed as 2.5.

As to `C=C(C)C(=O)O` [methacrylic acid], the pKa is listed as 3.6. For `C=CC(=O)O` [acrylic acid], the pKa is 3.6. In the case of `CCCCC(CC)C(=O)O` (centres unmarked) [2-Ethylhexanoic acid], under “Table 4”, the pKa is reported as 2-Ethylhexanoic acid (pKa: 4.1).

What is called pKa is the pH at which an ionisable group is half protonated.
